Experimental data: patent US12209145B2, “PCSK9 antagonist compounds” (Merck Sharp & Dohme LLC, priority 2018, dated 2025)

Experiments:
PCSK9 [1] = molecular target: T1, PCSK9 (Homo sapiens, UniProt Q8NBP7); assay: PCSK9 Alexa FRET Ultra TR-FRET assay (displacement of AlexaFluor647 tagged cyclic peptide); format: binding; settings: 0.5 nM biotinylated PCSK9, 960 nM AF cyclic peptide, Ki calculated from IC50 and KD of AF peptide
T1 construct: Biotinylated PCSK9 was obtained commercially; purchased
Procedure: (§1) The following is a description of the assays used to determine activity of compounds of the invention, and any comparator compounds reported, toward PCSK9 antagonism. Biotinylated PCSK9 was obtained commercially.
A solution containing 1 nM biotinylated PCSK9+2.5 nM Lance Streptavidin Europium (Strep-Eu) is made in 50 mM HEPES pH 7.4, 0.15 M NaCl, 5 mM CaCl2, 0.01% BSA, and 0.01% Surfactant P20. A separate solution containing 1920 nM of the AlexaFluor tagged cyclic peptide is made in the same buffer system. An Echo is used to transfer 0.015 ul of compound plus 0.735 ul of DMSO to each well of an assay plate followed by the addition of 15 ul of PCSK9+Stept-Eu and 15 ul of AF peptide. The final assay volume is 30.750 ul containing 0.5 nM PCSK9, 1.25 nM Strep-Eu, and 960 nM AF cyclic peptide. The reaction is incubated at room temperature for at least two hours prior to fluorescence measurements using an Envision Multilabel Reader. IC50 values are determined by fitting data to a sigmoidal dose-response curve using nonlinear regression. Ki is then calculated from the IC50 and the KD of AF cyclic peptide. Counts (B-counts) of the europium-labeled PCSK9 are followed to observe if compounds are adversely affecting PCSK9. A fall off of the B-counts is likely indicates a false positive of inhibition. Data from this procedure is reported as “Ki Ultra=‘numerical value’ (data reported is nanomolar)”

PCSK9 [2] = molecular target: T1, PCSK9; assay: PCSK9 Alexa FRET Plus TR-FRET assay (displacement of AlexaFluor647 tagged cyclic peptide Reagent B); format: binding; settings: 0.5 nM biotinylated PCSK9, 960 nM AF cyclic peptide Reagent B, Ki calculated from IC50 and KD of AF peptide
Procedure: as §1
A solution containing 1 nM biotinylated PCSK9+2.5 nM Lance Streptavidin Europium (Strep-Eu) is made in 50 mM HEPES pH 7.4, 0.15 M NaCl, 5 mM CaCl2, 0.01% BSA, and 0.01% Surfactant P20. A separate solution containing 1920 nM of the AlexaFluor tagged cyclic peptide is made in the same buffer system. An Echo is used to transfer 0.075 ul of compound plus 0.675 ul of DMSO to each well of an assay plate followed by the addition of 15 ul of PCSK9+Stept-Eu and 15 ul of AF peptide. The final assay volume is 30.750 ul containing 0.5 nM PCSK9, 1.25 nM Strep-Eu, and 960 nM AF cyclic peptide. The reaction is incubated at room temperature for at least two hours prior to fluorescence measurements using an Envision Multilabel Reader. IC50 values are determined by fitting data to a sigmoidal dose-response curve using nonlinear regression. Ki is then calculated from the IC50 and the KD of AF cyclic peptide. Counts (B-counts) of the europium-labeled PCSK9 are followed to observe if compounds are adversely affecting PCSK9. A fall off of the B-counts is likely indicates a false positive of inhibition. Data from this procedure is reported as “P=‘numerical value’ (nanomolar)”
Activity data obtained by one or both of the above-described procedures is reported for selected example compounds of the invention in the following format: Example No.: A (standard TR Fret)=‘numerical value’; P (Alexa Fret plus standard TR Fret)=‘numerical value’/, note that all values reported are nanomolar.

T1 sequence (Q8NBP7 153-692): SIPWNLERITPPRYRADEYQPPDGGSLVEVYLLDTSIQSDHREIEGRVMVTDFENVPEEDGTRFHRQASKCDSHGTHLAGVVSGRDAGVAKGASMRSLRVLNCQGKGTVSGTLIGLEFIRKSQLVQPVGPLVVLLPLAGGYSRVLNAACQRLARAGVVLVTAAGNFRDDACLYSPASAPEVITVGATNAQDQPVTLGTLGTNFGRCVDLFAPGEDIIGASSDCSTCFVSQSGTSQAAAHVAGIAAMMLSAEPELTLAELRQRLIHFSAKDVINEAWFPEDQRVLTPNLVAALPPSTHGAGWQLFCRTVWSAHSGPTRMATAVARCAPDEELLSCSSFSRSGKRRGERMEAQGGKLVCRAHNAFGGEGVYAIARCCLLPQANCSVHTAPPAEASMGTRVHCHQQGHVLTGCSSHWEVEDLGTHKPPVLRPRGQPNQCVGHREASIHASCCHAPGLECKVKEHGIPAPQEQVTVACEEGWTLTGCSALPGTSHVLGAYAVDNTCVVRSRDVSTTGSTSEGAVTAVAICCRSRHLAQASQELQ

Compound	Ki (PCSK9 [1]; read-out: Ki Ultra)	Ki (PCSK9 [2]; read-out: Ki Plus)	Ki (PCSK9 [1]; Ki Ultra)	Ki (PCSK9 [2]; Ki Plus)
COc1ccc(C[C@@H]2NC(=O)[C@H]([C@@H](C)O)NC(=O)[C@@H]3[C@@H]4CCN3C(=O)[C@@H]3Cc5cn(c6ccc(F)cc56)CCCCCN(Cc5ccc(cc5)CCNC(=O)[C@]5(C)CCCN5C2=O)C(=O)CCC(=O)N[C@@H](C)C(=O)N[C@H](CNC(=O)CCOCCOCC[N+](C)(C)C)C(=O)N[C@@H](Cc2cccc(c2)CNC(=O)CO4)C(=O)N3)cc1 [Ex-17]	2.8 pM	≤ 5.58 pM		
COc1ccc(C[C@@H]2NC(=O)[C@H]([C@@H](C)O)NC(=O)[C@@H]3[C@@H]4CCN3C(=O)[C@@H]3Cc5cn(c6ccc(F)cc56)CCCCCCN(Cc5ccc(cc5)CCNC(=O)[C@]5(C)CCCN5C2=O)C(=O)CCCC(=O)N[C@H](CNC(=O)CCOCCOCC[N+](C)(C)C)C(=O)N[C@@H](Cc2cccc(c2)CNC(=O)CO4)C(=O)N3)cc1 [Ex-18]			118 pM	33.6 pM
COc1ccc(C[C@@H]2NC(=O)[C@H]([C@@H](C)O)NC(=O)[C@@H]3[C@@H]4CCN3C(=O)[C@@H]3Cc5cn(c6ccc(F)cc56)CCCCCCN(Cc5ccc(cc5)CCNC(=O)[C@]5(C)CCCN5C2=O)C(=O)CCC(=O)N[C@H]2CN(C(=O)CCOCCOCC[N+](C)(C)C)CCCCC(=O)NC[C@@H](NC2=O)C(=O)N[C@@H](Cc2cccc(c2)CNC(=O)CO4)C(=O)N3)cc1 [Ex-19]	12 pM	16.6 pM		
COc1ccc(C[C@@H]2NC(=O)[C@H]([C@@H](C)O)NC(=O)[C@@H]3[C@@H]4CCN3C(=O)[C@@H]3Cc5cn(c6ccc(F)cc56)CCCCCCN(Cc5ccc(cc5)CCNC(=O)[C@]5(C)CCCN5C2=O)C(=O)CCCCC(=O)N[C@H](CNC(=O)CCOCCOCC[N+](C)(C)C)C(=O)N[C@@H](Cc2cccc(c2)CNC(=O)CO4)C(=O)N3)cc1 [Ex-20]	17.1 pM	13 pM		
COc1ccc(C[C@@H]2NC(=O)[C@H]([C@@H](C)O)NC(=O)[C@@H]3[C@@H]4CCN3C(=O)[C@@H]3Cc5cn(c6ccc(F)cc56)CCCCCCN(Cc5ccc(cc5)CCNC(=O)[C@]5(C)CCCN5C2=O)C(=O)CCCCCC(=O)N[C@H](CNC(=O)CCOCCOCC[N+](C)(C)C)C(=O)N[C@@H](Cc2cccc(c2)CNC(=O)CO4)C(=O)N3)cc1 [Ex-21]			1.26 pM	5.69 pM
COc1ccc(C[C@@H]2NC(=O)[C@H]([C@@H](C)O)NC(=O)[C@@H]3[C@@H]4CCN3C(=O)[C@@H]3Cc5cn(c6ccc(F)cc56)CCCCCCN(Cc5ccc(cc5)CCNC(=O)[C@]5(C)CCCN5C2=O)C(=O)CCC(=O)N[C@@H](CNC(=O)CCOCCOCC[N+](C)(C)C)C(=O)N[C@H](C)C(=O)N[C@@H](Cc2cccc(c2)CNC(=O)CO4)C(=O)N3)cc1 [Ex-22]	15.2 pM	9.26 pM		
COc1ccc(C[C@@H]2NC(=O)[C@H]([C@@H](C)O)NC(=O)[C@@H]3[C@@H]4CCN3C(=O)[C@@H]3Cc5cn(c6ccc(F)cc56)CCCCCCN(Cc5ccc(cc5)CCNC(=O)[C@]5(C)CCCN5C2=O)C(=O)CCC(=O)N[C@@H](C)C(=O)N[C@H](CNC(=O)CCC(=O)NC2OC(CO)C(O)C(O)C2O)C(=O)N[C@@H](Cc2cccc(c2)CNC(=O)CO4)C(=O)N3)cc1 (stereo partly drawn) [Ex-23]	2.39 pM	9.38 pM		
COc1ccc(C[C@@H]2NC(=O)[C@H]([C@@H](C)O)NC(=O)[C@@H]3[C@@H]4CCN3C(=O)[C@@H]3Cc5cn(c6ccc(F)cc56)CCCCCCN(Cc5ccc(cc5)CCNC(=O)[C@]5(C)CCCN5C2=O)C(=O)CCC(=O)N[C@@H](C)C(=O)N[C@H](CNC(=O)CCCCC[N+](C)(C)C)C(=O)N[C@@H](Cc2cccc(c2)CNC(=O)CO4)C(=O)N3)cc1 [Ex-25]		11.3 pM	4.63 pM	
COc1ccc(C[C@@H]2NC(=O)[C@H]([C@@H](C)O)NC(=O)[C@@H]3C4CCN3C(=O)[C@@H]3Cc5cn(c6ccc(F)cc56)CCCCN(Cc5ccc(cc5)CCNC(=O)[C@]5(C)CCCN5C2=O)C(=O)CCCCCC(=O)N[C@H](CNC(=O)CCC(=O)NC2OC(CO)C(O)C(O)C2O)C(=O)N[C@@H](Cc2cccc(c2)CNC(=O)CO4)C(=O)N3)cc1 (stereo partly drawn) [Ex-26]	2.75 pM	≤ 5.58 pM		
